The subject of the assay is Hepatitis B virus. Nature of the assay: Effective concentration against hepatitis B virus. Format: functional, organism-based.

As to `Cc1cn([C@@H]2O[C@H](CO)[C@@H](O)[C@@H]2F)c(=O)[nH]c1=O` [5-METHYL-2'-FLUOROARAURACIL], it took 0.13 µM to reach a half-maximal effect (EC50).

For orientation: EC50 means the concentration needed to bring the measured effect to its halfway point.

Values taken from ChEMBL document CHEMBL1134634, “Rapid enantiomeric quantification of an antiviral nucleoside agent (D,L-FMAU, 2'-fluoro-5-methyl-beta,D,L-arabinofurano-syluracil) by mass spectrometry” (J Med Chem, 2001).
